Measurements: US20030143559A1, “Novel estrogen receptor ligand binding domain variants and novel ligands and pharmaceutical compositions” (priority 2001, published 2003)
Residue numbers refer to the chain shown, from its start.

What was measured:
[1] = BIV lentiviral reporter vector without activator, eGFP expression by FACS in 293T cells; assay type: cell-based; settings: reporter BIVC2H2FOSEGFP, activator none; 100 nM, forty-eight hours
Excerpt: One of the reporter constructs described above was introduced individually into 3×10^6 293T cells along with other components of the BIV four component packaging system (U.S. patent application of Luo et al. filed Feb. 4, 2002 entitled “Recombinant Bovine Immunodeficiency Virus Based Gene Transfer System” (Atty Docket No. 2048-127; serial number to be assigned) and Matukonis et al., (“Development of Second and Third Generation of Bovine Immunodeficiency Virus Based Gene Transfer Systems” Human Gene Therapy, in press (2002)) by CaPO4-mediated transient transfection. Eighteen hours post transfection, media were replaced with fresh DMEM containing 10% FBS and 200 mM butyric acid. Forty-eight hours later, conditioned media were collected from the transfected cells. Two mls of conditioned media from each transfection plus 2 mls of DMEM/FBS were added to 2×10^5 293T cells in individual wells of a six well tissue culture plate. In addition, 2 mls of conditioned media from either the pBIVC2H2FOSeGFP transfections were combined with 2 mls of conditioned media from the pBIVMNDC7 or pBIVMND2AS transfections and added to 2×10^5 293T cells. 8 μg/ml protamine sulfate were added to each transduction reaction. Four hours later, conditioned media was removed from the transduced cells and replaced with fresh DMEM/FBS. […]

[2] = biological target: T1, ER-LBD H524G (Homo sapiens, UniProt P03372, H524G); assay: ER-LBD H524G transactivation, cell-based reporter gene assay
T1 construct: expressed in transfected cells
T1 sequence (P03372 311-547 H524G limits assumed): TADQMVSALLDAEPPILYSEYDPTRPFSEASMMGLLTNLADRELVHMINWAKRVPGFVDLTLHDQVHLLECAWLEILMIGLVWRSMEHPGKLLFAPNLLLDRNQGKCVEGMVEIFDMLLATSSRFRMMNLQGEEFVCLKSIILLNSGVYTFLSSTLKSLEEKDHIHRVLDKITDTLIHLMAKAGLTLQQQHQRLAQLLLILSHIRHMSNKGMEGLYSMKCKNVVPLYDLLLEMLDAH
Procedure: (§1) In order to evaluate the ability of the fusion proteins C7LBD A, B, and the related LBD mutants to regulate transgene expression, a standard co-transfection reporter assay was performed. A reporter construct, henceforth known as 6×2C7pGL3Luc, containing six copies of a directly repeated C7 binding site (6×2C7) inserted upstream of an SV40 promoter fragment and reporter gene encoding firefly luciferase (pGL3Pro; Promega) was transfected along with the designated fusion protein and assayed as described below. Note the consensus C7 binding site is 5′-GCG TGG GCG-3′.
(§2) Cultured cells (HeLa, Cos, Hep3B or other) were seeded at 5×10^4 cells/well in a 24 well plate prior to the day of transfection in DMEM Phenol-free media, supplemented with L-glutamine and 5% (v/v) charcoal-dextran stripped Fetal Bovine serum (sFBS). Cells were transfected using the Qiagen Superfect Transfection method. For each well 1 μg of total DNA, containing 0.5 μg luciferase reporter plasmid (6×2C7pGL3Luc), 0.1 μg of chimeric activator DNA (e.g., C7LBDA, C7LBDB, or mutants thereof ), and 0.4 μg of an inert carrier plasmid DNA (p3Kpn), was mixed with 60 μL of DMEM phenol-free/serum free media, and 5 μL of Superfect reagent. In general, about 10 ng to about 0.5 μg of chimeric activator DNA was used for each well.
The mixture was vortexed for 10 seconds and incubated at room temperature for 10 minutes, followed by the addition of 350 μL of DMEM phenol-free 5% sFBS media. Cells were washed once with Dulbecco's phosphate buffered saline (DPBS) and the transfection mixture placed on the cells. Cells were washed once with DPBS following a 2.5 hour incubation at 37 degrees Celsius, and re-fed with DMEM Phenol-free 5% sFBS media.
Cells were treated 24 hours later by washing once with DPBS and adding 200 μL 1X reporter lysis buffer (Promega). Plates were frozen at -80° C. and on the day of assay thawed at room temperature for 1.5 hours on an orbital shaker at 100 RPM. After allowing for cellular debris to settle, lysate was transferred to a new tube, diluted 1:10 with 1X reporter lysis buffer and 10 μL transferred to 96 well opaque plates.
The sequence of the oligonucleotides used for the H524G modification were […] […] Mutated plasmids were isolated and their sequence confirmed.

[3] = biological target: T2, H524A mutant (Homo sapiens, UniProt P03372, H524A); assay: H524A mutant activation, cell-based reporter gene assay; settings: 10 nM ligand
T2 construct: plasmids encoding the fusion proteins ER-LBD-C7LBDa and C7LBDb to substitute either alanine or glycine for histidine at residue 524; expressed in transfected cells
T2 sequence (P03372 311-547 H524A limits assumed): T1 sequence (P03372 311-547 H524G limits assumed) with G214A
Procedure: as §1
as §2, with “well. […]” for “well.”

[4] = biological target: T3, wild-type ER (Homo sapiens, UniProt P03372); assay: Inhibition of E2 activity on wild-type ER, COS-7 cells with pHEGO and ERE luciferase reporter; assay type: cell-based; settings: IC50 ± STDEV, pHEGO and pERETkLuc, E2 (3 nM) + 0.1 to 1000 nM compound
T3 construct: expressed in transfected cells; host or cells: COS-7
T3 sequence (P03372 1-595): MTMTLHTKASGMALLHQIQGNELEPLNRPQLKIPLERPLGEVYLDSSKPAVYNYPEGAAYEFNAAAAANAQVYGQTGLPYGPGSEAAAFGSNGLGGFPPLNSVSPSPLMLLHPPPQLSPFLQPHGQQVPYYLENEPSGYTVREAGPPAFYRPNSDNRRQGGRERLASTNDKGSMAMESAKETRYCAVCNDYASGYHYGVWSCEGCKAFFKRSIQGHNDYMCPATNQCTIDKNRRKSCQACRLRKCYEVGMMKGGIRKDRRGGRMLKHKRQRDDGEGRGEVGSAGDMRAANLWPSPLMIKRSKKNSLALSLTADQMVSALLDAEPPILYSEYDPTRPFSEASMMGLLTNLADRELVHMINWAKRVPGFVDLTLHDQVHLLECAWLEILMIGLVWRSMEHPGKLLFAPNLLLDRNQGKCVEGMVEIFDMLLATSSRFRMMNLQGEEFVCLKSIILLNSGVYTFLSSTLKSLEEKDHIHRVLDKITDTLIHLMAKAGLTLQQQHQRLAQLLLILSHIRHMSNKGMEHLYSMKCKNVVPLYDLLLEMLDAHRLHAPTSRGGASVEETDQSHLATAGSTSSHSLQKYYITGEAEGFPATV
Procedure: For transfection, 0.5 microgram of pERE2tkluc reporter plasmid, 20 ng of pHEGO, and 0.5 microgram of pCIneo inert carrier DNA were combined with 60 microliter serum-free DMEM and 5 microliter Qiagen Superfect transfection reagent, vortexed for 10s, and set at room temperature for 10 min. Each sample was diluted with 350 microliters of steroid-free media, mixed, and added to each well. Following 2 hr 30 min incubation at 37° C., cells were washed once with Dulbecco's phosphate buffered saline (DPBS), and refed with steroid-free media. […] Approximately 24 hr after treatment, cells were washed once with DPBS, then 200 microliter of reporter lysis buffer was added per well and frozen at −80° C. Cells were thawed at room temperature on an orbital shaker for 1 hr 30 min. A 10 microliter aliquot of lysate was transferred to 96 well opaque plates, and relative luciferase units (RLU) determined on a luminometer using the appropriate firefly luciferase substrate.
Note that the nonspecific activity is a noncompetable element in the assay system.
In order to dissolve them completely, all the solutions were warmed in 55° C. or boiled water bath for 10 to 20 min before use. The DMSO in cell culture medium was maintained to 0.01% for all the drug concentration tested as well as the vehicle control.

[5] = biological target: T4, Av3-H524G (Homo sapiens, UniProt P03372, H524G); assay: Transactivation on adenoviral (Av3)-delivered ER variant, luciferase in HeLa cells; assay type: cell-based; settings: 100 nM test compound, 24 hrs (FIG. 5)
T4 construct: fragment B=ER amino acids 258-554; expressed in transfected cells; host or cells: HeLa cells transduced with Av3 or gutless adenoviral vector
T4 sequence (P03372 258-554 H524G): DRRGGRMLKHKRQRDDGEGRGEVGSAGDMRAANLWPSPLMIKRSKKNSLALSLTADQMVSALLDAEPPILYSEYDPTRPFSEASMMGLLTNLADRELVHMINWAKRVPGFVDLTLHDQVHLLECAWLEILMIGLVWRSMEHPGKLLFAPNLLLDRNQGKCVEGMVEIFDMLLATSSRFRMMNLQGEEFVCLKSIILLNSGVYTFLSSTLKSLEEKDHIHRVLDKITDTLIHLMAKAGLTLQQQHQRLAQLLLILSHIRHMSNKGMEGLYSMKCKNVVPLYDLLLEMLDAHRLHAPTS
Excerpt: Xu et al., Molecular Therapy, 3:262-273, 2000.

[6] = biological target: T5, 524G transcription factor (Homo sapiens, UniProt P03372, H524G); assay: In vitro inducible luciferase expression with gutless adenoviral transcription factor vector in Hela cells; assay type: cell-based
T5 construct: fragment B=ER amino acids 258-554; expressed in transfected cells; host or cells: HeLa cells transduced with Av3 or gutless adenoviral vector
T5 sequence (P03372 258-554 H524G): T4 sequence (P03372 258-554 H524G)

Compound	% Gated Cells [1] [%]	degree of induction of H524G as compared to estrogen ([2]; 10 nM)	fold induction at 0.01 µM ([2]; 10 nM ligand, H524G (FIG. 6))	fold induction at 10 nM ([2]; 10 nM ligand, H524G (FIG. 6)) [fold]	EC50 ([2]; Table 3, read-out: EC50 ± STDEV) [nM]	fold induction at 0.01 µM [3]	IC50 [4] [nM]	luciferase activity over the basal level [5] [times]	Fold Induction ([6]; 100 nM ligand vs without ligand) [fold]	Luciferase Expression Levels (Relative Light Units) ([6]; (+) induced with 100 nM ligand, mean +/− standard error (n = 4))
4-hydroxytamoxifen [4-OHT]	0.36									
C/C(=C(/c1ccc(O)cc1)c1ccc(OCCN(C)C)cc1)c1ccc(N2CCOCC2)cc1 [LBF580, 4-((1E)-1-{4-[2-(dimethylamino)ethoxy]phenyl}-2-(4-morpholin-4-ylphenyl)prop-1-enyl)phenol]		nine	138	140	≤ 25	4	253	16	8	285695 +/− 2331 Relative Light Units
